Experimental data as given in ChEMBL document CHEMBL1134899, “Non-steroidal pregnancy-terminating agents: design, synthesis and structure-activity relationships of 2-aryl-1,2,4-triazolo[1,5-a]pyridine” (2002).
Calls of active or inactive are those of the source. The rule behind the calls is not given here.

Tests used:
Rattus norvegicus [1] = organism: Rattus norvegicus; test: Compound was tested for in vitro activity of luteolysis on corpora lutea from pseudopregnant rats; assay type: functional; conditions: read-out: ED50 (the source's name)
Rattus norvegicus [2] = organism: Rattus norvegicus; test: Compound was tested for in vitro activity of luteolysis on corpora lutea from pseudopregnant rats; inactive; assay type: functional

EC50 (Rattus norvegicus [1]) [µM] | Compound | ED50 (Rattus norvegicus [2])
65 | Cc1cccc2nc(-c3ccc4c(c3)OCO4)nn12 | 
 | Cc1cccc2nc(-c3ccccc3)nn12 | inactive
